Read-outs that look alike come from different tables or passages of the source.
Key:
Assay type in all cases: in vivo, Beta vulgaris
[1] = tested on: sugar beet plants carrying the R126L mutation; conditions: SAF 1X, 200 g a.i./ha, 17 days after spraying
Protocol: (§1) In other experiments, plants carrying the mutation R126L described below in Table 6 were acclimatized in soil for 3-5 weeks and screened for PPO resistance with a spray test of the PPO herbicides Saflufenacil (Brand name TREEVIX at a recommended dose of 200 g a.i./ha), Pyraflufen-ethyl (Brand name EVOLUTION at a recommended dose of 0.8l/ha, or a.i. 26.5 g/l) Saflufenacil (pure compound Sigma at a recommended dose of 200 g a.i./ha). The spray was performed at a concentration of 0.5× and 1× of the recommended dose for Saflufenacil), and 0.2× for Pyraflufen-ethyl). The pure chemical compound SAF used on the regenerated plants in vitro was also used in this screen at 1× recommended dose of 200 g ai/Ha. Water treatment was included as a control. […] In both experiments each sugar beet plant was multiplied in vitro as to include a total of minimum 4 clones or replicates of each edited sugar beet plant per herbicide treatment. The phytotoxicity effect of PPO inhibiting herbicides was measured in mutated sugar beet plants (on a set of minimum 4 clones per edited sugar beet plant) based on a scale from 0% to 100%, or 1 to 5, (i.e. 0% or 1 being no damage/no phytotoxicity observed and 100% or 5, being all plants were completely damaged or killed,) compared to wild-type plants. […]
(§2) No score is provided when the plant has not been tested, noted as NT in the table (not tested). Water treatment was included when enough plants were available. At least 4 copies per edited plant were sprayed. Scores were given on group of 4 copies per edited plant. HDR=edited plant showing the expected mutation R to L at position 126, INDEL=edited plant showing another type of edit than the expected mutation.

[2] = tested on: sugar beet plants edited at position 126 showing another type of edit than the expected mutation; conditions: SAF 1X, 200 g a.i./ha, 17 days after spraying
Protocol: as §1, §2

[3] = tested on: wild-type sugar beet plants; test: Spray test of PPO herbicides on control (Ctrl) sugar beet plants; conditions: SAF 1X, 200 g a.i./ha, 17 days after spraying
Protocol: as §1
No score is provided when the plant has not been tested, noted as NT in the table (not tested). […]

[4] = tested on: regenerated wild-type sugar beet plants; test: In vitro growth of regenerated wild-type plants on media containing SAF; conditions: media containing SAF 2.5 μM; wild-type genotype
Protocol: (§3) In other experiments, screening for resistance to PPO herbicides was done on 25 regenerated sugar beet plants obtained after transfection of guard cell protoplasts by growing these plants (8 clones or copies per plant) on media containing SAF at a concentration of 2.5 μM. Visual observation of growth was done after 20 to 28 days. Plants were scored visually according to their growth, and marked “OK” for plants showing growth, “Bit growth” for plants showing limited growth, “No” for plants showing no growth, or “Dead” for plants that were dead after SAF exposure. The concentration of SAF used in this screen was identified as impacting severely on regenerated wild-type plants obtained after protoplast isolation and regeneration from the sugar beet genotype, from which guard cell protoplasts are isolated for transfection.

edited sugar beet plants = test: In vitro growth of regenerated edited plants on media containing SAF; conditions: media containing SAF 2.5 μM
Protocol: as §3

## CC(C)N(C)S(=O)(=O)NC(=O)c1cc(-n2c(=O)cc(C(F)(F)F)n(C)c2=O)c(F)cc1Cl [SAF, saflufenacil]
[1]; event HTC003 (HDR)
  phytotoxicity score 1 to 5 (healthy to damaged): 4
[1]; event HTC007 (HDR)
  phytotoxicity score 1 to 5 (healthy to damaged): 3
[1]; event HTC013 (HDR)
  phytotoxicity score 1 to 5 (healthy to damaged): 2
[1]; event HTC015 (HDR)
  phytotoxicity score 1 to 5 (healthy to damaged): 3
[1]; event HTC018 (HDR)
  phytotoxicity score 1 to 5 (healthy to damaged): 2
[1]; event HTC024 (HDR)
  phytotoxicity score 1 to 5 (healthy to damaged): 4
[1]; event HTC046 (HDR)
  phytotoxicity score 1 to 5 (healthy to damaged): 2
[1]; event HTC056 (HDR)
  phytotoxicity score 1 to 5 (healthy to damaged): 4
[2]; event HTC001 (INDEL)
  phytotoxicity score 1 to 5 (healthy to damaged): 5
[2]; event HTC002 (INDEL)
  phytotoxicity score 1 to 5 (healthy to damaged): 4
[2]; event HTC009 (INDEL)
  phytotoxicity score 1 to 5 (healthy to damaged): 4
[2]; event HTC012 (INDEL)
  phytotoxicity score 1 to 5 (healthy to damaged): 4
[2]; event HTC014 (INDEL)
  phytotoxicity score 1 to 5 (healthy to damaged): 4
[2]; event HTC016 (INDEL)
  phytotoxicity score 1 to 5 (healthy to damaged): 4
[2]; event HTC017 (INDEL)
  phytotoxicity score 1 to 5 (healthy to damaged): 4
[2]; event HTC021 (INDEL)
  phytotoxicity score 1 to 5 (healthy to damaged): 5
[2]; event HTC023 (INDEL)
  phytotoxicity score 1 to 5 (healthy to damaged): 2
[2]; event HTC028 (INDEL)
  phytotoxicity score 1 to 5 (healthy to damaged): 4
[3]; B8M52 (Ctrl)
  phytotoxicity score 1 to 5 (healthy to damaged): 5
[3]; HTC005 (Ctrl)
  phytotoxicity score 1 to 5 (healthy to damaged): 5
[4]
  effect on growth of regenerated wild-type plants (visual): severe growth retardation and in some cases lethal effect
Edited sugar beet plants; 20 to 28 days, edited plants scored as OK and Bit growth
  growth of edited plants (visual): good level of SAF tolerance
Edited sugar beet plants; 20 days, HTC013 and HTC015 (R126L), 8 copies each, versus wild-type
  growth and plant development of edited versus wild-type plants (visual): Clear differences in growth, and plant development
